Laboratory results taken from patent publication US20060013775A1, “Use of ppar activators for the treatment of pulmonary fibrosis” (priority 2001, published 2006).

Test system: Primary human lung fibroblasts
Experiment: α-SMA positive cell (myofibroblast) count in primary lung fibroblast strains from ILD patients
Type: cell-based
Conditions: for percentage of α-SMA cells (α-SMA positive cells as a percentage of total cells): pioglitazone 3 μM, 3 days; for percentage of α-SMA cells: 10 days, vehicle 16.5 (SEM 2.7), n=4
Source text: Primary human lung fibroblasts were derived from patients with ILD (Idiopathic Pulmonary Fibrosis or Chronic Hypersensitivity Pneumonitis). Patients had clinical, functional and radiologic features which fulfil the diagnostic criteria for an ILD. Briefly, they had progressive dyspnea, bilateral reticulonodular images on chest roentgenogram, restrictive lung functional impairment, with decreased lung volumes and compliance, and hypoxemia at rest that worsened with exercise. The methods used to isolate and culture the lung fibroblasts and count cells are described in Wang et al, Am. J. Physiol. Lung 277:L1158-1164 (1999). In brief, lung fibroblasts were isolated by trypsin digestion of tissues minced to 1 mm^2 fragments. Fibroblast/myofibroblast strains were established in Dulbecco's modified Eagle's medium (or in Hams F-12 medium) supplemented with 10% fetal calf serum, 200 U/ml penicillin, and […] streptomycin, and were cultured in 24-well plates. All cells were cultured at 37° C. in 95% air-5% carbon dioxide. For these experiments, 2 strains were used. In order to quantify myofibroblast numbers, the myofibroblast marker alpha-smooth muscle actin (α-SMA) was measured. […] In a first experiment, the 2 strains were grown to 70-80% confluence. The cells were exposed to pioglitazone at 3 μM or drug vehicle for 3 days, after which the number of α-SMA positive cells was quantified (sample size 24) as a percentage of total cells. For one strain, the percentage of α-SMA cells was 27 (standard error mean 3.7) with control and 17 (standard error mean 2.5) in the presence of 3 μM pioglitazone. The drug effect was statistically significant (P≦0.01 Student-Newman-Keuls Multiple Comparisons Test). For the second strain, the respective values were 30.6 (standard error of mean 2.7) and 26 (standard error of mean 2.9) although the difference was not statistically significant. In a second experiment, the effect of pioglitazone on the second strain was studied again, but the exposure time was increased to 10 days and the effects of lower and higher concentrations (1 μM and 10 μM) were studied. After 10 days treatment with vehicle, the percentage of α-SMA cells was 16.5 (standard error of mean 2.7); after 10 days treatment with pioglitazone at 1 μM the percentage was 15.3 (standard error of mean 1.8); and after treatment with pioglitazone at 10 μM the percentage of α-SMA cells was 7.4 (standard error of mean 1.8) (all n=4). The reduction in α-SMA cells by 10 μM pioglitazone was significant (P≦0.05 Dunnett Multiple Comparisons Test).

**Q.** What does the source list for `CCc1ccc(CCOc2ccc(CC3SC(=O)NC3=O)cc2)nc1` (stereo not shown) [pioglitazone]?
**A.** percentage of α-SMA cells (α-SMA positive cells as a percentage of total cells) (first strain, control 27 (SEM 3.7), statistically significant P≦0.01, sample size 24): 17 (standard error mean 2.5) percentage; percentage of α-SMA cells (second strain, pioglitazone 1 μM): 15.3 (standard error of mean 1.8) percentage; percentage of α-SMA cells (α-SMA positive cells as a percentage of total cells) (second strain, control 30.6 (SEM 2.7), difference not statistically significant): 26 (standard error of mean 2.9) percentage; percentage of α-SMA cells (second strain, pioglitazone 10 μM, significant P≦0.05): 7.4 (standard error of mean 1.8) percentage
